Test results from ChEMBL document CHEMBL1201862, “PubChem BioAssay data set” (2004).
Where “and” joins values, the source holds several entries; their conditions need not be identical. Equal entries are not always repeated.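 Following 48 hours of exposure in 96-well plates, responses at five concentrations were used to interpolate endpoints linearly. GI50 is the concentration that inhibits growth by half.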 Calls of active or inactive are those of the source. No stated cut-off is given here; in the data, active = GI50 up to about 1.1 µM and inactive = higher.

What was measured:
Test in all cases: NCI anticancer screen, dose series, 48 h
M14 = system: M14
SNB-75 = system: SNB-75
TK-10 = system: TK-10
SR = system: SR
T47D = system: T47D
OVCAR-8 = system: OVCAR-8
MDA-N = system: MDA-N
CCRF-CEM = system: CCRF-CEM
SF-295 = system: SF-295
SK-OV-3 = system: SK-OV-3
HT-29 = system: HT-29
SF-268 = system: SF-268
U-251 = system: U-251
UO-31 = system: UO-31
MDA-MB-231 = system: MDA-MB-231
SK-MEL-28 = system: SK-MEL-28
UACC-62 = system: UACC-62
IGROV-1 = system: IGROV-1
NCI-H522 = system: NCI-H522
SF-539 = system: SF-539

Measured: GI50

O=C1OC(c2ccccc2)=N/C1=C\c1cccc(F)c1
inactive: M14 57.8 µM | SNB-75 64.3 µM | TK-10 > 100 µM | SR 22.9 µM | T47D > 100 µM | OVCAR-8 26.2 µM | MDA-N 56.6 µM | CCRF-CEM 35.7 µM | SF-295 40.8 µM | SK-OV-3 > 100 µM | HT-29 > 100 µM | SF-268 34.5 µM | U-251 38.1 µM | UO-31 > 100 µM | MDA-MB-231 > 100 µM | SK-MEL-28 96.6 µM | UACC-62 > 100 µM | IGROV-1 52.5 µM | NCI-H522 16 µM

Cc1ccc(S(=O)(=O)N2CCN(CCO)CCN(S(=O)(=O)c3ccc(C)cc3)CCN(CCO)CC2)cc1
inactive: M14 17.1 µM | SNB-75 26.3 µM | TK-10 28.2 µM | SR 12.3 µM | T47D 17.5 µM | OVCAR-8 28 µM | MDA-N 27.2 µM | CCRF-CEM 22.9 µM | SF-295 31.7 µM | HT-29 12.2 µM | SF-268 26.1 µM | U-251 25.4 µM | UO-31 22.6 µM | MDA-MB-231 21.7 µM | SK-MEL-28 16.3 µM | SF-539 15.8 µM | UACC-62 18.2 µM | IGROV-1 21.5 µM | NCI-H522 18.7 µM

COc1ccc(C2=Cc3nc2c(-c2ccccc2)c2ccc([nH]2)c(-c2ccccc2)c2nc(c(-c4ccccc4)c4ccc([nH]4)c3-c3ccccc3)C=C2)cc1
inactive: M14 > 100 µM | SNB-75 25.2 µM | TK-10 > 100 µM | SR > 100 µM | T47D > 100 µM | OVCAR-8 > 100 µM | MDA-N > 100 µM | CCRF-CEM > 100 µM | SF-295 > 100 µM | SK-OV-3 > 100 µM | HT-29 > 100 µM | SF-268 51.4 µM | U-251 30.5 µM | UO-31 > 100 µM | MDA-MB-231 > 100 µM | SK-MEL-28 > 100 µM | SF-539 > 100 µM | UACC-62 > 100 µM | IGROV-1 > 100 µM

O=C(O)CCCC(=O)Nn1c(Cc2ccc(Cl)cc2)n[nH]c1=O
inactive: M14 > 100 µM | SNB-75 > 10 µM | TK-10 > 100 µM | SR > 100 µM | T47D > 100 µM | OVCAR-8 > 100 µM | MDA-N > 100 µM | CCRF-CEM > 100 µM | SF-295 > 100 µM | SK-OV-3 > 100 µM | HT-29 > 100 µM | SF-268 > 100 µM | U-251 > 100 µM | UO-31 14.9 µM | MDA-MB-231 > 100 µM | SK-MEL-28 > 100 µM | UACC-62 > 100 µM | IGROV-1 > 100 µM | NCI-H522 71.8 µM

CN(C)CCOC1(Cc2ccc(F)cc2)CCC(C(C)(C)C)CC1 (centres undefined)
inactive: M14 1.67 µM and 2.05 µM | TK-10 6.95 µM and 12 µM | SR 2.63 µM and 2.29 µM | T47D 4.34 µM and 5.09 µM | OVCAR-8 11.2 µM and 12.8 µM | MDA-N 3.2 µM and 5.93 µM | CCRF-CEM 3.19 µM and 2.64 µM | SF-295 5.75 µM and 6.38 µM | SK-OV-3 14 µM and 15.2 µM | HT-29 2.88 µM and 2.7 µM | SF-268 12.4 µM and 12.9 µM | U-251 5.28 µM and 6.25 µM | UO-31 6.12 µM and 4.81 µM | MDA-MB-231 9.62 µM and 10.5 µM | SK-MEL-28 6.05 µM and 4.17 µM | UACC-62 4.36 µM and 6.52 µM | IGROV-1 11.1 µM and 11.5 µM | NCI-H522 6.08 µM and 10.7 µM

COC(=O)[C@@H]1CN(C(=O)c2ccccc2)C(=O)N1
inactive: M14 > 100 µM | SNB-75 > 100 µM | TK-10 > 100 µM | SR > 100 µM | T47D > 100 µM | OVCAR-8 > 100 µM | MDA-N > 100 µM | CCRF-CEM > 100 µM | SF-295 > 100 µM | HT-29 > 100 µM | SF-268 > 100 µM | U-251 > 100 µM | UO-31 69.7 µM | MDA-MB-231 > 100 µM | SK-MEL-28 > 100 µM | SF-539 > 100 µM | UACC-62 > 100 µM | IGROV-1 > 100 µM | NCI-H522 > 100 µM

O=c1c2c3ccccc3[nH]c2c2cccc3c2n1CCC3
inactive: M14 60.5 µM | SNB-75 50.4 µM | TK-10 68.9 µM | SR 25.9 µM | T47D 61 µM | OVCAR-8 50.9 µM | MDA-N 66.5 µM | CCRF-CEM 30.5 µM | SF-295 37.7 µM | SK-OV-3 83.6 µM | HT-29 29.6 µM | SF-268 33 µM | U-251 36.1 µM | UO-31 > 10 µM | MDA-MB-231 28.3 µM | SK-MEL-28 41.8 µM | SF-539 40.1 µM | UACC-62 36.5 µM | IGROV-1 84.5 µM

Cn1c(=O)oc2cc(C(=O)CN3CCN(Cc4ccc5c(c4)OCO5)CC3)c(Cl)cc21
inactive: SNB-75 > 100 µM | SR > 100 µM | T47D > 100 µM | MDA-N > 100 µM | CCRF-CEM > 100 µM | SF-295 > 100 µM | SK-OV-3 > 100 µM | SF-268 > 100 µM | U-251 > 100 µM | UO-31 94 µM | MDA-MB-231 > 100 µM | SF-539 > 100 µM | UACC-62 > 100 µM | IGROV-1 > 100 µM

Cc1ccc(C2SCc3nc4ccccc4n32)cc1 (centres undefined)
active: SNB-75 0.0103 µM | MDA-N 0.407 µM
inactive: M14 4.49 µM | TK-10 3.54 µM | T47D 10.3 µM | OVCAR-8 3.66 µM | CCRF-CEM 2.79 µM | SF-295 2.19 µM | SK-OV-3 7.8 µM | HT-29 2.47 µM | SF-268 11.7 µM | U-251 5.87 µM | UO-31 5.36 µM | MDA-MB-231 10.6 µM | SK-MEL-28 6.62 µM | SF-539 2.29 µM | UACC-62 2.43 µM | IGROV-1 3.18 µM | NCI-H522 4.74 µM

CC(C)(C)OC(=O)N1CCCC1=O
inactive: M14 > 10 µM | SNB-75 > 10 µM | TK-10 > 10 µM | SR > 10 µM | T47D > 10 µM | OVCAR-8 > 10 µM | MDA-N > 10 µM | CCRF-CEM > 10 µM | SF-295 > 10 µM | SK-OV-3 > 10 µM | HT-29 > 10 µM | SF-268 > 10 µM | U-251 > 10 µM | UO-31 > 10 µM | MDA-MB-231 > 10 µM | SK-MEL-28 > 10 µM | SF-539 > 10 µM | UACC-62 > 10 µM | IGROV-1 > 10 µM

CC1(C)OC(=O)N(c2ccccc2)C12C=Cc1cccc([N+](=O)[O-])c1O2 (centres undefined)
inactive: M14 51.6 µM | SNB-75 35.6 µM | TK-10 > 100 µM | SR 9.18 µM | T47D 43.4 µM | OVCAR-8 92.7 µM | MDA-N 42.5 µM | CCRF-CEM 37.3 µM | SF-295 55.1 µM | SK-OV-3 28.2 µM | HT-29 98.9 µM | SF-268 > 100 µM | U-251 65.9 µM | UO-31 45.3 µM | MDA-MB-231 > 100 µM | SK-MEL-28 90.8 µM | UACC-62 80 µM | IGROV-1 96.6 µM | NCI-H522 36.5 µM

O=C1Nc2ccc(Br)cc2C1=Nc1cccnc1
inactive: M14 15.7 µM | SNB-75 > 100 µM | TK-10 57.5 µM | T47D 20.6 µM | OVCAR-8 25.3 µM | MDA-N 17 µM | CCRF-CEM 16.2 µM | SF-295 50.4 µM | SK-OV-3 47.5 µM | HT-29 21 µM | SF-268 27.7 µM | U-251 12.4 µM | UO-31 11.1 µM | MDA-MB-231 18.1 µM | SK-MEL-28 19.5 µM | SF-539 16.5 µM | UACC-62 17.3 µM | IGROV-1 19 µM | NCI-H522 13.2 µM

CCOC(=O)C1=C(C)NC(C)=C(C(=O)OCC)C1c1ccc(C)cc1
active: CCRF-CEM 0.0193 µM
inactive: M14 37.6 µM | SNB-75 24.8 µM | TK-10 66.8 µM | T47D 39.9 µM | OVCAR-8 28.1 µM | MDA-N 31.8 µM | SF-295 27.4 µM | SK-OV-3 57 µM | HT-29 27.8 µM | SF-268 51.1 µM | U-251 46.9 µM | UO-31 51.1 µM | MDA-MB-231 29.4 µM | SK-MEL-28 > 100 µM | SF-539 37.1 µM | UACC-62 39.4 µM | IGROV-1 27 µM | NCI-H522 32.4 µM

CC1=CSC(O)(c2ccc(Cl)cc2)c2noc(=O)n21 (centres undefined)
inactive: M14 > 100 µM | SNB-75 61.7 µM | TK-10 > 100 µM | SR 50.7 µM | T47D 54.8 µM | OVCAR-8 97.7 µM | MDA-N 88.3 µM | SF-295 > 100 µM | SK-OV-3 > 100 µM | HT-29 > 100 µM | SF-268 > 100 µM | U-251 > 10 µM | UO-31 58.1 µM | MDA-MB-231 > 100 µM | SK-MEL-28 29.2 µM | SF-539 > 100 µM | UACC-62 44.9 µM | IGROV-1 > 100 µM
